Data published in publication PMC11882969 (Nature Communications, 2025).
Values joined by “and” are separate entries in the source; they are usually repeats but may differ in a detail not shown here. Equal entries are not always repeated. Marks after values point to notes of the source that are not given here.

How the values were obtained:
CB1 (rCB1) = CB1 (rCB1) (Rattus norvegicus, UniProt P20272); assay: Radioligand competition binding, [3H]-CP-55,940, rat brain membranes; conditions: for radioligand binding, competition curve point (normalized): log[drug], replicate columns
CB1 (rCB1), sequence (P20272 whole entry): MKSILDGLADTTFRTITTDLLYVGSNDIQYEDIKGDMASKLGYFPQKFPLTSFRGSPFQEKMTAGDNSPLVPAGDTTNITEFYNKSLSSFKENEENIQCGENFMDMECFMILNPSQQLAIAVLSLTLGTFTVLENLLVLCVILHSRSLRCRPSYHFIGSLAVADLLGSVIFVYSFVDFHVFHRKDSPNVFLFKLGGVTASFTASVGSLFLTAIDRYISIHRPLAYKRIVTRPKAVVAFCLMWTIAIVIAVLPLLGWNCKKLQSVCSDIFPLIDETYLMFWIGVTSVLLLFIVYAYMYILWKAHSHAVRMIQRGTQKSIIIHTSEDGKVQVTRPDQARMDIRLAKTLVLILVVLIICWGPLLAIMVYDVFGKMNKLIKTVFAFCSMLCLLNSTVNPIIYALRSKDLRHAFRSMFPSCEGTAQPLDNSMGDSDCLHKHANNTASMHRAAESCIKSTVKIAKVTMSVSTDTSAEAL

hCB1 [1] = target: T1, hCB1 (Homo sapiens, UniProt P21554); assay: Lance Ultra cAMP accumulation assay, CHO cells; assay type: cell-based; design: expressed in transfected cells; conditions: for normalised cAMP response, concentration-response (Figure2f), replicate values: log[Compound;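 as to all read-outs here: human CB1R stably expressed in CHO cells, ligands co-incubated with forskolin at room temperature, read-out is lowering of forskolin-stimulated cAMP accumulation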
T1 sequence (P21554 whole entry): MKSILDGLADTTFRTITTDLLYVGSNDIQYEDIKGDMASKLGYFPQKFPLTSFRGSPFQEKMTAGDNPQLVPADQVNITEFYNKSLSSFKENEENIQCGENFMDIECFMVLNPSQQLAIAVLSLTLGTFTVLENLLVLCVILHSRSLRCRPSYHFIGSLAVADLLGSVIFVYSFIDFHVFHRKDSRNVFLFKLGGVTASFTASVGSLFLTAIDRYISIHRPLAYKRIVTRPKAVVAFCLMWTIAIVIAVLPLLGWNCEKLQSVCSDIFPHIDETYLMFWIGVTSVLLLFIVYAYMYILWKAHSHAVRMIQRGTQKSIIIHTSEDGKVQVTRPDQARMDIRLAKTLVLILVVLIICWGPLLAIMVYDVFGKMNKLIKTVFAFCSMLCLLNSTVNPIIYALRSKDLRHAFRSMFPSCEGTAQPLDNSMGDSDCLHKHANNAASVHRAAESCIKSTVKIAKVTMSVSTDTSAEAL

hCB1 [2] = target: T1, hCB1; assay: bioSensAll ebBRET signaling profiling, hCB1; assay type: cell-based; design: host or cells: HEK293SL cells, transient PEI transfection

## COC(=O)[C@@](C)(NC(=O)c1cc(C)n(-c2cccc(C(F)(F)F)c2)n1)c1cccs1 [‘1350]
CB1 (rCB1); LLE = pIC50 − clogP
  LLE (lipophilic ligand efficiency): 4.7
CB1 (rCB1); from rCB1 affinity
  LE (ligand efficiency): 0.41
CB1 (rCB1); rCB1
  pKi [95% CI]: 9.0 [8.9 – 9.1] and 9.02 [8.9 – 9.1]
CB1 (rCB1); rCB1, M = -6.643
  radioligand binding, competition curve point (normalized): -0.744 and -7.487 and -3.298
CB1 (rCB1); rCB1, M = -7.357
  radioligand binding, competition curve point (normalized): -0.8036 and -4.1 and -0.2377
CB1 (rCB1); rCB1, M = -8.07
  radioligand binding, competition curve point (normalized): 10.2232 and 5.66 and 5.585
CB1 (rCB1); rCB1, M = -8.783
  radioligand binding, competition curve point (normalized): 48.7054 and 44.7118 and 50.1783
CB1 (rCB1); rCB1, M = -9.496
  radioligand binding, competition curve point (normalized): 85.9821 and 91.8301 and 85.5615
CB1 (rCB1); rCB1, M = -10.21
  radioligand binding, competition curve point (normalized): 99.5833 and 109.715 and 87.0469
CB1 (rCB1); rCB1, M = -11.923
  radioligand binding, competition curve point (normalized): 90.0893 and 95.7219 and 98.7077
CB1 (rCB1); rCB1, M = -13.636
  radioligand binding, competition curve point (normalized): 93.4375 and 98.1283
CB1 (rCB1); rCB1 binding
  fold more potent than CP-55,940: 3 fold
CB1 (rCB1); vs parent hit or analog without the change
  fold improvement in CB1R affinity: ~50 fold
hCB1 [1]
  Lance Ultra cAMP pEC50: 8.8 [8.4 – 9.2]
hCB1 [1]; CHO
  Emax: 77%
hCB1 [1]; hCB1-expressing cells, in words
  agonism, inhibition of forskolin-stimulated cAMP: agonists
hCB1 [1]; M] -5
  normalised cAMP response, concentration-response (Figure2f), replicate values: -4.858 and 11.635 and 22.5761 and 22.3192 and 16.0513
hCB1 [1]; M] -6
  normalised cAMP response, concentration-response (Figure2f), replicate values: 0.02957 and 13.0032 and 24.8348 and 23.4809 and 19.7873
hCB1 [1]; M] -7
  normalised cAMP response, concentration-response (Figure2f), replicate values: -1.176 and 11.2775 and 31.1162 and 23.9321 and 21.5823
hCB1 [1]; M] -8
  normalised cAMP response, concentration-response (Figure2f), replicate values: 4.023 and 6.478 and 36.7172 and 38.802 and 36.5532
hCB1 [1]; M] -9
  normalised cAMP response, concentration-response (Figure2f), replicate values: 33.486 and 46.5508 and 80.4827 and 77.993 and 76.9862
hCB1 [1]; M] -10
  normalised cAMP response, concentration-response (Figure2f), replicate values: 57.5574 and 85.1374 and 96.2204 and 101.985 and 96.4953
hCB1 [1]; M] -11
  normalised cAMP response, concentration-response (Figure2f), replicate values: 67.5707 and 85.3574 and 95.6722 and 97.0187 and 98.6477
hCB1 [1]; M] -12
  normalised cAMP response, concentration-response (Figure2f), replicate values: 65.6738 and 93.8429 and 115.239 and 106.805 and 95.2537
hCB1 [2]; CB1R, Gi/o and G13 subtypes
  fold more relatively efficacious than CP-55,940: approximately 2 fold
hCB1 [2]; Log [Compound] (M) -4.22186
  Barr2+GRK2 hCB1: 125.5* and 120.6* and 91.27*
  G13 hCB1: 69.1809 and 43.3855
  G15 hCB1: 108.417 and 97.817
  Gi1 hCB1: 103.518 and 79.8531 and 99.2855
  Gi2 hCB1: 106.254 and 114.578
  GoB hCB1: 102.685 and 99.7877 and 104.661
  Gq hCB1: 1156
  Gs hCB1: 6234
  Gz hCB1: 98.9486
hCB1 [2]; Log [Compound] (M) -4.63927
  Barr2+GRK2 hCB1: 67.7543 and 59.6502 and 97.3886
  G15 hCB1: 104.285 and 89.1373
  Gi1 hCB1: 100.256 and 80.2965 and 97.3658
  Gi2 hCB1: 112.478 and 82.217
  GoB hCB1: 94.4304 and 95.2911 and 109.92
  Gq hCB1: 1096
  Gs hCB1: 6120
  Gz hCB1: 94.4339
hCB1 [2]; Log [Compound] (M) -5.05788
  G15 hCB1: 99.6047 and 93.8454
  Gi1 hCB1: 101.042 and 84.715 and 96.0704
  Gi2 hCB1: 100.013 and 77.0501
  GoB hCB1: 90.3283 and 96.4543
  Gq hCB1: 1019
  Gs hCB1: 6223
  Gz hCB1: 91.6266
hCB1 [2]; Log [Compound] (M) -5.47381
  G15 hCB1: 92.6315 and 93.0563
  Gi1 hCB1: 98.0616 and 86.5046 and 101.002
  Gi2 hCB1: 109.888 and 85.6163
  GoB hCB1: 95.0781 and 98.6071
  Gq hCB1: 1081
  Gs hCB1: 6070
  Gz hCB1: 90.4534
hCB1 [2]; Log [Compound] (M) -5.89285
  Barr2+GRK2 hCB1: 49.9477 and 47.2064 and 86.5049
  G15 hCB1: 99.748 and 91.636
  Gi1 hCB1: 97.1719 and 80.8667 and 101.065
  Gi2 hCB1: 102.458 and 76.0168
  GoB hCB1: 92.8683 and 94.9439 and 107.071
  Gq hCB1: 1042
  Gs hCB1: 6370
  Gz hCB1: 91.8989
hCB1 [2]; Log [Compound] (M) -6.31878
  G15 hCB1: 101.969 and 92.5566
  Gi1 hCB1: 107.685 and 74.7378 and 104.951
  Gi2 hCB1: 103.614 and 79.7423
  GoB hCB1: 90.0362 and 98.2252 and 101.933
  Gq hCB1: 1039
  Gs hCB1: 6417
  Gz hCB1: 93.1455
hCB1 [2]; Log [Compound] (M) -6.72585
  G15 hCB1: 105.885 and 89.0321
  Gi1 hCB1: 94.74 and 76.8441 and 99.3323
  Gi2 hCB1: 103.093 and 82.0131
  GoB hCB1: 94.0367 and 93.8848 and 98.7347
  Gq hCB1: 1115
  Gs hCB1: 6298
  Gz hCB1: 84.3779
hCB1 [2]; Log [Compound] (M) -7.14267
  G15 hCB1: 103.856 and 93.4508
  Gi1 hCB1: 91.7446 and 70.6519 and 99.504
  Gi2 hCB1: 99.8505 and 80.4086
  GoB hCB1: 91.8523 and 88.9368 and 103.009
  Gq hCB1: 1002
  Gs hCB1: 6288
  Gz hCB1: 87.489 and 99.2286
hCB1 [2]; Log [Compound] (M) -7.55284
  Barr2+GRK2 hCB1: 47.1448 and 43.6966 and 56.3415
  G15 hCB1: 99.9152 and 95.5813
  Gi1 hCB1: 97.765 and 74.1201 and 97.5531
  Gi2 hCB1: 96.1681 and 79.7288
  GoB hCB1: 92.1444 and 89.4924 and 88.6102
